Source: ChEMBL document CHEMBL5465560, “Selectivity Literature for EUbOPEN Chemogenomic Library” (2024)
Each block holds one compound with its values, some of them ahead of it.

Legend:
[1] = target: T1, Mitogen-activated protein kinase kinase kinase 19 (Homo sapiens) (UniProt Q56UN5); test: Selectivity interaction (KinomeScan (DiscoverX)) EUB0001868a MAP3K19; conditions: at 1 µM
T1 sequence (whole entry): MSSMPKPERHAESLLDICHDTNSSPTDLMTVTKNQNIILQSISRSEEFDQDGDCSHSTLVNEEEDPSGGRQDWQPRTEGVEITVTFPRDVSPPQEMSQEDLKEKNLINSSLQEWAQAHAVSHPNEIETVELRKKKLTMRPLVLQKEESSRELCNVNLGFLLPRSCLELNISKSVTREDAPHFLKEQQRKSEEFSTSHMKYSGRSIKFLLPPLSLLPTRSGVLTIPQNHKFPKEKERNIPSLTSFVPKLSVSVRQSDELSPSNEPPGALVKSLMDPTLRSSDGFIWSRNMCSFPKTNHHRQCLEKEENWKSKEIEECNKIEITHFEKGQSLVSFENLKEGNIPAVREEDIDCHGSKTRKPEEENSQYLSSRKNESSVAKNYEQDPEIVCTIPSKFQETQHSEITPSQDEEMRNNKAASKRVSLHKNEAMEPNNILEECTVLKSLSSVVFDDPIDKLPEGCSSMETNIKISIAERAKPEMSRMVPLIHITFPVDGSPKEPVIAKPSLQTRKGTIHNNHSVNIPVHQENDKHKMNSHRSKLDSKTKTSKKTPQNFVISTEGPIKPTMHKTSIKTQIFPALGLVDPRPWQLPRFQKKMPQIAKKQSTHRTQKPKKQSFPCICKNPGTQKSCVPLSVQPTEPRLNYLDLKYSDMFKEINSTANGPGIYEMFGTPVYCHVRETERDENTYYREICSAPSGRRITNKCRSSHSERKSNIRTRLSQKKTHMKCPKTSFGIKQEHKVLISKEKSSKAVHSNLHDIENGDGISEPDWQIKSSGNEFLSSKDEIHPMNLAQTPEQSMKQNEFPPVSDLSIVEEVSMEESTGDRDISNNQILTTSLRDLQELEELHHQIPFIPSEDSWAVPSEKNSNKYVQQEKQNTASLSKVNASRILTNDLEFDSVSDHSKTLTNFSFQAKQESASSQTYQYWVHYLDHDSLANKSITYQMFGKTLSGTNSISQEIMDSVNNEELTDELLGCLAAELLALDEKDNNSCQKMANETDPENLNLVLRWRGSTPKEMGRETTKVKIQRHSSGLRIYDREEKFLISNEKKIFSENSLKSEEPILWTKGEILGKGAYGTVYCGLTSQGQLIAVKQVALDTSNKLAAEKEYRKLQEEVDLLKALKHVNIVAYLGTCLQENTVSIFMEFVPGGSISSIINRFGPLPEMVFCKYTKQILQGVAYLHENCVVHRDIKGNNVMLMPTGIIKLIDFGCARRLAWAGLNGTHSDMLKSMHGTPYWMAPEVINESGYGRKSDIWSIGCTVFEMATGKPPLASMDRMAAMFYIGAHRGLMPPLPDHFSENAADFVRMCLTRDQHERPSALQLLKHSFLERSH

[2] = target: Serine/threonine-protein kinase OSR1 (Homo sapiens) (UniProt O95747); test: Selectivity interaction (KinomeScan (DiscoverX)) EUB0000607a OXSR1; conditions: at 10 µM
[3] = target: T2, Ephrin type-A receptor 3 (Homo sapiens) (UniProt P29320); test: Selectivity interaction (KinomeScan (DiscoverX)) EUB0001079a EPHA3; conditions: at 1 µM
T2 sequence (whole entry): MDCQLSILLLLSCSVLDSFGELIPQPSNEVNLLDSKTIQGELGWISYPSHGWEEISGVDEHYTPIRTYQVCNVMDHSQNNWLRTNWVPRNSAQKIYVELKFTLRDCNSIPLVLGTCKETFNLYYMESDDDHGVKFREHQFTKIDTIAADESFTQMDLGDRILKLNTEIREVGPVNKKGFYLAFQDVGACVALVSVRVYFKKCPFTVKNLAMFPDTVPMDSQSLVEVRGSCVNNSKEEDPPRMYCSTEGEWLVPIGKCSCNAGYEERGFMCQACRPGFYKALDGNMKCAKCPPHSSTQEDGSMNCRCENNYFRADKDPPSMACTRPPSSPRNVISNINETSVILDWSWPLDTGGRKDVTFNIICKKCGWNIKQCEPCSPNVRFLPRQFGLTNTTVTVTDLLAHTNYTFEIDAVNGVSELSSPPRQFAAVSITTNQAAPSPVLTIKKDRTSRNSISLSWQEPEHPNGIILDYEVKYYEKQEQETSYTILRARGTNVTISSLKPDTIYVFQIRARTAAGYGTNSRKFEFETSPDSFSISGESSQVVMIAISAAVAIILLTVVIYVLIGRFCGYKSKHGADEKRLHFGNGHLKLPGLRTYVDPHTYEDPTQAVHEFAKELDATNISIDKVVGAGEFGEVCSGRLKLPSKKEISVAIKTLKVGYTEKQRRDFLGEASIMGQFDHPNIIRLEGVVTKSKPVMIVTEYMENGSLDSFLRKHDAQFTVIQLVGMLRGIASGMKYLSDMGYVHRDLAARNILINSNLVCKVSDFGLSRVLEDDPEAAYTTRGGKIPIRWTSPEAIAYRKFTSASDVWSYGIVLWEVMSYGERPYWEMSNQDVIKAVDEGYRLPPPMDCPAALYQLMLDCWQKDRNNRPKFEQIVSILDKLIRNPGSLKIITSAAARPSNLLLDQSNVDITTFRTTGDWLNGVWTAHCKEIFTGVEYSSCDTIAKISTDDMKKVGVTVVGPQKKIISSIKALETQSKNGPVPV

[4] = target: T3, Phosphatidylinositol 5-phosphate 4-kinase type-2 beta (Homo sapiens) (UniProt P78356); test: Selectivity interaction (ActivX KiNativ screen (ex vivo kinase selectivity in human PBMCs)) EUB0001619a PIP4K2B; assay type: cell-based; conditions: PBMC, at 1 µM
T3 sequence (whole entry): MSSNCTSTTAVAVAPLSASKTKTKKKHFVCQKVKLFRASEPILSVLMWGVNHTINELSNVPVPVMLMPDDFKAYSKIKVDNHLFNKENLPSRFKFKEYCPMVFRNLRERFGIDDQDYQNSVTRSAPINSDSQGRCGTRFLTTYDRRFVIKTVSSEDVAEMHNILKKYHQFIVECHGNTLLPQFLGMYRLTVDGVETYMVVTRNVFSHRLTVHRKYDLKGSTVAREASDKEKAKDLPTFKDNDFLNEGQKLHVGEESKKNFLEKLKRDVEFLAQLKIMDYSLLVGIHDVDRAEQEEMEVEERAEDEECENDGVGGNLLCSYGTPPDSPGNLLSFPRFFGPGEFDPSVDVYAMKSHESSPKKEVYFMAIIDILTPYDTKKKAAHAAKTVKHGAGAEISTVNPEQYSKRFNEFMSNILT

Sequence of Serine/threonine-protein kinase OSR1 (Homo sapiens) (O95747 2-527 limits assumed): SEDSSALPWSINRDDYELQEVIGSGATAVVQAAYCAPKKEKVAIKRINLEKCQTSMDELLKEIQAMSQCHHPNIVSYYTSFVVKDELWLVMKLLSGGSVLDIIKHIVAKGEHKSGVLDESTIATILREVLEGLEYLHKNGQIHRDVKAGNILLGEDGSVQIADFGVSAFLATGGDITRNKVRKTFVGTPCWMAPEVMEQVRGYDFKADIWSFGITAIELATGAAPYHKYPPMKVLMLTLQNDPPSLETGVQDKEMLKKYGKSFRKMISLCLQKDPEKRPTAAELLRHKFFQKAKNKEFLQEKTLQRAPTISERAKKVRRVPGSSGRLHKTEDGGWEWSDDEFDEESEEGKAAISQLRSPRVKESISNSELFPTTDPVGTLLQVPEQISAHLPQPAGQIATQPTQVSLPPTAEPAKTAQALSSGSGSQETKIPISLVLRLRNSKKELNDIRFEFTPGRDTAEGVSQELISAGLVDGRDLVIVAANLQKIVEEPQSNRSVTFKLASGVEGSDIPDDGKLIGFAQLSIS

% of control [1]: 9%
Compound: Cc1cc(-c2ccnc(Nc3cnn(C)c3)n2)ccc1CNC(=O)N1CC(OC(C)C)C1

Compound: CNC(=O)Nc1ccc(-c2nc(N3CC4CCC(C3)O4)c3cnn(C4CCC5(CC4)OCCO5)c3n2)cc1
% of control [2]: 100%

Compound: Nc1cnc(N2CCc3cc(S(=O)(=O)Nc4c(F)cc(Cl)cc4F)cc(N4CCCC4=O)c32)nc1 [TP-020n]
% of control [3]: 78%

Compound: N#Cc1cccc(-c2c[nH]c3ncnc(N4CCOCC4)c23)c1
% of inhibition [4]: 16%
